Measurements published in patent US10517889B2, “Modulators of SMAD7 expression” (Ionis Pharmaceuticals, Inc., priority 2017, dated 2019).
Strand notation (5' to 3'): a small letter for the sugar, then the base; units joined by * are phosphorothioate-linked, units joined directly phosphodiester-linked; [ ] holds rarer units or linkages, { } end groups; capitals alone tell only the bases. e = 2'-O-(2-methoxyethyl) (MOE); [5mC] = 5-methylcytosine; d = 2'-deoxy (DNA)

Test system: human SMAD7 mRNA
Assay: Antisense inhibition of human SMAD7 mRNA expression in Hep3B cells by 5-10-5 MOE gapmers, single concentration, electroporation, RT-PCR (Example 1, Study 1 and 2)
Format: cell-based
Conditions: for % Inhibition: Study 2, electroporation with 15,000 nM antisense oligonucleotide; for % Inhibition of SMAD7 mRNA: electroporation with 15,000 nM antisense oligonucleotide (Study 2)
How it was run: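 Readout is percent SMAD7 mRNA inhibition versus untreated cells, measured by qRT-PCR (RTS5062) and corrected for total RNA by RIBOGREEN. Oligonucleotide, 5,000 nM or 15,000 nM, was delivered by electroporation into Hep3B cells at 20,000 per well. RNA was collected about 24 h later.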

[1] = 5-10-5 MOE gapmers targeting SEQ ID NO: 1 and 2
[2] = electroporation, 5,000 nM, approximately 24 hours, relative to untreated control cells, gapmers targeting SEQ ID NO: 1 and 2
[3] = electroporation, 15,000 nM, approximately 24 hours, relative to untreated control cells, gapmers targeting SEQ ID NO: 1 and 2
[4] = electroporation, 15,000 nM antisense oligonucleotide (Study 2), 5-10-5 MOE gapmers targeting SEQ ID NO: 1 and 2

Substance | % Inhibition [1] [%] | % inhibition of SMAD7 mRNA expression [4] [%] | further results
771775 (antisense eA*eA*eT*eG*e[5mC]*d[5mC]*dA*dA*dA*dT*dG*d[5mC]*d[5mC]*d[5mC]*dA*eA*eA*eA*e[5mC]*eT) [compound 771775] | 41 |  | 
771779 (antisense eA*e[5mC]*eA*e[5mC]*eA*d[5mC]*dT*dG*d[5mC]*dT*dG*d[5mC]*d[5mC]*dT*dT*eT*eT*e[5mC]*eT*e[5mC]) [compound 771779] | 33 |  | % inhibition of SMAD7 mRNA expression [2]: 53%
771780 (antisense eA*e[5mC]*eA*eA*eA*d[5mC]*d[5mC]*dT*dT*d[5mC]*d[5mC]*dG*dA*dA*dA*eG*eG*eA*e[5mC]*e[5mC]) [compound 771780] | 20 |  | 
771781 (antisense eA*eA*eA*eA*eA*dA*dA*dG*d[5mC]*d[5mC]*d[5mC]*dA*d[5mC]*d[5mC]*d[5mC]*eA*eT*e[5mC]*eG*eG) [compound 771781] |  |  | % inhibition of SMAD7 mRNA expression [3]: 10%
771783 (antisense e[5mC]*e[5mC]*e[5mC]*eT*eT*d[5mC]*dA*dG*dA*dG*dA*dG*dT*d[5mC]*dA*e[5mC]*eT*eG*e[5mC]*eT) [compound 771783] | 49 |  | 
771784 (antisense eT*eA*eA*eA*eT*d[5mC]*dA*dA*dG*dA*dG*d[5mC]*dT*dG*dA*eA*eA*eT*eT*e[5mC]) [compound 771784] |  | 0 | % Inhibition of SMAD7 mRNA [1]: 1%
771785 (antisense eA*e[5mC]*eT*eT*eT*dG*dA*dA*dG*d[5mC]*d[5mC]*dT*dT*dT*dG*eG*eA*eA*eT*eT) [compound 771785] |  | 12 | 
771787 (antisense eA*eA*eG*eA*eA*dG*dA*dA*dG*dG*dA*dG*d[5mC]*dT*d[5mC]*eA*eA*eA*e[5mC]*eT) [compound 771787] | 27 |  | % inhibition of SMAD7 mRNA expression [2]: 0%
771789 (antisense e[5mC]*e[5mC]*e[5mC]*eA*eA*dA*dA*d[5mC]*dA*dG*dT*dG*dT*dA*d[5mC]*e[5mC]*e[5mC]*eT*e[5mC]*e[5mC]) [compound 771789] |  |  | % inhibition of SMAD7 mRNA expression [3]: 30%
771790 (antisense e[5mC]*eA*eA*eA*eA*d[5mC]*dT*d[5mC]*dT*d[5mC]*dT*dG*d[5mC]*d[5mC]*d[5mC]*eT*eG*eG*eA*e[5mC]) [compound 771790] | 36 |  | 
771791 (antisense eG*eA*eG*eG*eA*dG*dG*dG*dA*dG*dA*dA*dA*d[5mC]*dT*e[5mC]*e[5mC]*eT*e[5mC]*eA) [compound 771791] | 22 |  | 
771792 (antisense eA*eG*e[5mC]*eA*e[5mC]*dA*d[5mC]*d[5mC]*d[5mC]*d[5mC]*dA*d[5mC]*d[5mC]*d[5mC]*d[5mC]*e[5mC]*eA*e[5mC]*e[5mC]*eT) [compound 771792] |  | 2 | % Inhibition of SMAD7 mRNA [1]: 33%
771796 (antisense eG*eT*eT*eT*eG*d[5mC]*dG*d[5mC]*dA*d[5mC]*dG*dG*dG*dA*dT*eT*eG*eT*e[5mC]*eT) [compound 771796] | 16 |  | 
771798 (antisense eG*eA*e[5mC]*eA*e[5mC]*dA*dT*d[5mC]*d[5mC]*dA*dT*dG*dT*d[5mC]*d[5mC]*eA*eA*eG*e[5mC]*eA) [compound 771798] | 17 |  | 
771800 (antisense eG*eA*e[5mC]*eA*eG*d[5mC]*dA*dG*dA*d[5mC]*dA*dG*dG*d[5mC]*dA*eA*eA*eA*eT*eG) [compound 771800] |  | 12 | % Inhibition of SMAD7 mRNA [1]: 32%
771801 (antisense eA*e[5mC]*e[5mC]*eT*eA*d[5mC]*dA*dA*d[5mC]*dT*d[5mC]*dA*d[5mC]*dA*dA*eG*eG*eG*eA*eG) [compound 771801] |  | 31 | 
771802 (antisense e[5mC]*e[5mC]*eT*eT*eG*dA*dG*dA*dT*d[5mC]*d[5mC]*dA*dT*dG*dG*eG*eA*eG*e[5mC]*eA) [compound 771802] |  | 40 | 
771803 (antisense eA*eT*eG*eG*eA*dT*dA*d[5mC]*dT*dG*dA*d[5mC]*dT*d[5mC]*dA*eA*eG*eG*eA*e[5mC]) [compound 771803] | 39 |  | % inhibition of SMAD7 mRNA expression [2]: 22%
